The results in this text go back to patent publication US20080242663A1, “NOVEL PYRIMIDINE DERIVATIVES 698” (ASTRAZENECA AB, priority 2007, published 2008).

One assay deals with T1, recombinant EphB4 (Homo sapiens, UniProt P54760).
T1 construct: amino acids 563-987; Swiss-Prot Acc; No. P54760; purchased ProQinase GmbH 0178-0000-3
T1 sequence (P54760 563-987): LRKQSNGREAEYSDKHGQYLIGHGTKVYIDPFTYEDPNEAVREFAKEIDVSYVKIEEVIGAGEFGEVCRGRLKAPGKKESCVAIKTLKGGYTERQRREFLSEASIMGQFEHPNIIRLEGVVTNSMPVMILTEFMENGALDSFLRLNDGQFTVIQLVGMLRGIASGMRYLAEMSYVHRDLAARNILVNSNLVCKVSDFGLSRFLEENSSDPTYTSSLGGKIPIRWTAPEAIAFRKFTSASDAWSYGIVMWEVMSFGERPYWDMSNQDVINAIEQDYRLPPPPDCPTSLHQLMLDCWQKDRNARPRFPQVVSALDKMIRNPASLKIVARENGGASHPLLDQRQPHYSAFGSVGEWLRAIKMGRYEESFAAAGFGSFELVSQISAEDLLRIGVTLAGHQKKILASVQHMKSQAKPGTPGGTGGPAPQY
In words: In vitro EphB4 enzyme assay (Alphascreen). It is filed as biochemical. A digest of the protocol:
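Recombinant EphB4 phosphorylated biotin-poly-GAT with Mg-ATP for 1 hr at room temperature; EDTA stop, then Alphascreen donor/acceptor (anti-phosphotyrosine) beads for 20 hrs in the dark. After minimum subtraction, signal plotted against compound concentration to derive IC50.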

For the next assay, the target named is T2, human EphB4 (Homo sapiens, UniProt P54760).
T2 construct: to generate full-length EphB4 containing a Myc-His tag at the C-terminus; expressed in transfected cells; EphB4-CHO)
T2 sequence (P54760 16-987): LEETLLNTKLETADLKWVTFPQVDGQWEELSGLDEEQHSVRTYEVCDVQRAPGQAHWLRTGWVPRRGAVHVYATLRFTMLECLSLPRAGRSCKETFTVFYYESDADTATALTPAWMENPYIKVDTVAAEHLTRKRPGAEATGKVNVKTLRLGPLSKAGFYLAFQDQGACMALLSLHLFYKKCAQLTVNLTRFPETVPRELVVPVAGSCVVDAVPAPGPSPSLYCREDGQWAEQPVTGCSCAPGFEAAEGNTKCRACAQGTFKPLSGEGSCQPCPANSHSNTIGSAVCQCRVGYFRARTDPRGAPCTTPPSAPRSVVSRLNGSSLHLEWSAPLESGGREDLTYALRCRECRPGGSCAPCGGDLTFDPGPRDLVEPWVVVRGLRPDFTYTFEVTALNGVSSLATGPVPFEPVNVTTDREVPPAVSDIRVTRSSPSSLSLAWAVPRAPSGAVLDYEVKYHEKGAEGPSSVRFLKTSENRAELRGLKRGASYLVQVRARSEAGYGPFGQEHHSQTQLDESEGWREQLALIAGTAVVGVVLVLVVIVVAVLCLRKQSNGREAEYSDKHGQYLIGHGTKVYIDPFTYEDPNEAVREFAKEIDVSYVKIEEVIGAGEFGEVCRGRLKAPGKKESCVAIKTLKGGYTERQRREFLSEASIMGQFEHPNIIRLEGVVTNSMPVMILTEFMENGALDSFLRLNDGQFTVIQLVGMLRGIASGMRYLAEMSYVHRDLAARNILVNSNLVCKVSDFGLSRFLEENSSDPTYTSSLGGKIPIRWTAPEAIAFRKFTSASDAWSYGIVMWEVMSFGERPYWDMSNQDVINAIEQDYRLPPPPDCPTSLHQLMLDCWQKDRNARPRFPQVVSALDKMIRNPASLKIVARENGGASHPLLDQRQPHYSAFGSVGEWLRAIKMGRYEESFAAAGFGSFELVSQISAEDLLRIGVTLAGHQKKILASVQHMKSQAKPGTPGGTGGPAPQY
In words: In vitro EphB4 cell assay (EphB4 phosphorylation in EphB4-CHO cells, sandwich ELISA). It is filed as cell-based. Conditions: Assay B. How it is done: The assay identifies inhibitors of cellular EphB4 by measuring a decrease in phosphorylation of EphB4 following treatment of cells with compound. The endpoint assay used a sandwich ELISA to detect EphB4 phosphorylation status. Briefly, Myc-tagged EphB4 from treated cell lysate was captured on the ELISA plate via an anti-c-Myc antibody. The phosphorylation status of captured EphB4 was then measured using a generic phosphotyrosine antibody conjugated to HRP via a colourimetric output catalysed by HRP, with level of EphB4 phosphorylation directly proportional to the colour intensity. Absorbance was measured spectrophotometrically at 450 nm.
Full length human EphB4 (Swiss-Prot Acc. No. P54760) was cloned using standard techniques from cDNA prepared from HUVEC using RT-PCR. The cDNA fragment was then sub-cloned into a pcDNA3.1 expression vector containing a Myc-His epitope tag to generate full-length EphB4 containing a Myc-His tag at the C-terminus (Invitrogen Ltd. Paisley, UK). […] CHO-K1 cells were engineered to stably express the EphB4-Myc-His construct using standard stable transfection techniques, to generate cells hereafter termed EphB4-CHO.
On day 2, the cells were incubated overnight in 90 μl/well of media containing 0.1% Hyclone stripped-serum (Fisher Scientific UK, Catalogue No. SH30068.02). […] A 10 μl aliquot of each compound dilution was transferred to the cell plates in duplicate wells, and the cells incubated for 1 hr at 37° C.
Following compound treatment, cells were stimulated with clustered ephrin-B2 at a final concentration of 1 μg/ml for 20 minutes at 37° C. to induce EphB4 phosphorylation. Following stimulation, the medium was removed and the cells lysed in 100 μl/well of lysis buffer (25 mM Tris HCl, 3 mM EDTA, 3 mM EGTA, 50 mM NaF, 2 mM orthovanadate, 0.27M Sucrose, 10 mM β-glycerophosphate, 5 mM sodium pyrophosphate, 2% Triton X-100, pH 7.4).
Plates were washed twice with PBS/0.05% Tween-20 and incubated with 100 μl/well cell lysate overnight at 4° C. […] ELISA plates were washed four times with PBS/0.05% Tween-20 and developed with 100 μl/well TMB substrate (Sigma-Aldrich Company Ltd, Catalogue No. T0440). The reaction was stopped after 15 minutes with the addition of 25 μl/well 2M sulphuric acid. The absorbances were determined at 450 nm using the Tecan SpectraFluor Plus. The minimum value was subtracted from all values, and the signal plotted against compound concentration to generate IC50 data.
On the technique in general: ELISA stands for enzyme-linked immunosorbent assay.

Assay [1] concerns Human Colorectal cancer cells (HT29). In words: In vivo tumour explant model. To be noted: HT29 tumours in nude mice, 100 mg/kg b.i.d. orally, 16 consecutive days. The arrangement: species or system nude male mice (nu/nu:Alpk). As for the experimental part: Human Colorectal cancer cells (HT29 5×10^6 (ATCC HTB-38)) were implanted subcutaneously on to the left flank of nude male mice (nu/nu:Alpk). Actively growing tumours approx 0.2-0.3 cm^3 were selected and randomised. […] Tumours were measured twice weekly and volumes (cm^3) calculated (π/6×(length×width×width)/1000). On the final day of the dosing the tumours were measured, percent growth inhibition was then calculated compared to the control ((([…]-1))*100), where GMDV is the geometric delta volume of either treated (T) or control (C), and a T-Test was performed to establish significance.

On to `CN(c1ccnc(Nc2cc(F)cc(N3CCOCC3)c2)n1)c1ccc(F)c(Cl)c1F` [Example 2.2, N′-(3-chloro-2,4-difluoro-phenyl)-N-(3-fluoro-5-morpholin-4-yl-phenyl)-N′-methyl-pyrimidine-2,4-diamine], for which the half-maximal inhibitory concentration (IC50) (commonly the point on the concentration scale where inhibition reaches its midpoint) at recombinant EphB4 amounted to 2180 nM; at human EphB4, 74 nM.

Take `CN(c1ccnc(Nc2cc(N3CCCOCC3)cc(N3CCOCC3)c2)n1)c1ccc(F)c(Cl)c1F` [Example 2.10, N′-(3-chloro-2,4-difluoro-phenyl)-N′-methyl-N-[3-morpholin-4-yl-5-(1,4-oxazepan-4-yl)phenyl]pyrimidine-2,4-diamine]: the IC50 on recombinant EphB4 is 1270 nM; against human EphB4, 11 nM.

With `CC(C)OCc1cc(Nc2nccc(N(C)c3ccc(F)c(Cl)c3F)n2)cc(N2CCOCC2)c1` [Example 2.15, N′-(3-chloro-2,4-difluoro-phenyl)-N′-methyl-N-[3-morpholin-4-yl-5-(propan-2-yloxymethyl)phenyl] pyrimidine-2,4-diamine], the IC50 at recombinant EphB4 was determined as 1110 nM; against human EphB4 it was 17 nM.

In the case of `CN(c1ccnc(Nc2cc(CN3CCCC3)cc(N3CCOCC3)c2)n1)c1ccc(F)c(Cl)c1F` [Example 2.17, N′-(3-chloro-2,4-difluoro-phenyl)-N′-methyl-N-[3-morpholin-4-yl-5-(pyrrolidin-1-ylmethyl)phenyl]py-rimidine-2,4-diamine], the IC50 at recombinant EphB4 worked out at 28.9 nM; at human EphB4 it was 21 nM.

`CN1CCN(c2cccc(Nc3nccc(N(C)c4ccc(F)c(Cl)c4F)n3)c2)CC1` [Example 4, N′-(3-chloro-2,4-difluoro-phenyl)-N′-methyl-N-[3-(4-methylpiperazin-1-yl)phenyl]pyrimidine-2,4-diamine]: the figures for the 50% inhibitory concentration (IC50) on recombinant EphB4 and against human EphB4 were 63.8 nM and 1710 nM, respectively.

In the case of `Cc1ccc(CO)cc1N(C)c1ccnc(Nc2cc(N3CCOCC3)cc(N3CCOCC3)c2)n1` [[3-[[2-[(3,5-dimorpholin-4-ylphenyl)amino]pyrimidin-4-yl]-methyl-amino]-4-methyl-phenyl]methanol], the tumour volume entry in assay [1] is recorded as “reducing tumour volume”.
